Source: patent US11999758B2, “Inhibitors of the YAP/TAZ-TEAD interaction and their use in the treatment of cancer” (INVENTIVA, priority 2018, dated 2024)
Where a name gives a salt, the structure may show the parent alone.

Target: T1, YAP-TEAD interaction (Homo sapiens, UniProt P28347)
T1 construct: expressed in transfected cells; host or cells: HEK293 GripTite 293 MSR (Invitrogen R795-07)
Assay: Cell-based TEAD-GAL4 transactivation assay (luciferase reporter)
Settings: HEK293 cells transfected with TEAD1-Gal4, YAP mutant (S127A, S397A) and luciferase reporter, compounds 0.1 μM to 30 μM; for Emax: HEK293, 24 h, read-out: TEAD-GAL4 Transactivation activity Max Act
Procedure: To identify inhibitors of YAP-TEAD interaction, a transient transactivation assay was carried out on HEK293 cell line (HEK293 GripTite™ 293 MSR (Invitrogen R795-07)) using plasmids containing the full length TEAD1 sequences, the full length YAP mutant (S127A, S397A) and a luciferase gene reporter. All expression constructs were performed into a pSG5 backbone plasmid in which the SV40 promoter was replaced by the CMV promoter. The TEAD1 construct was prepared by cloning the full-length human TEAD1 cDNA in fusion with the Gal4 DNA Binding Domain (AA 1-148) into pSG5_CMV to create the TEAD1 (FL)_hum_pSG5Gal4_CMV. The full-length YAP mutant (S127A, S397A) was also cloned into pSG5_CMV to create the YAP (FL)_hum_pSG5_mutS127A_S397A_CMV. The reporter plasmid GAL4(5×RE)_TK(−105/+56)_pGL3-Basic contains 5 copies of the GAL4 responsive element (5′-TCGGAGGACAGTACTCC-3′) upstream of the thymidine kinase (TK) promoter (−105/+56) inserted in a pGL3-Basic vector. To evaluate the selectivity of our compounds in blocking the YAP-TEAD interaction, a counter-screening protein-protein interaction transactivation assay was also established. Briefly, two other expression plasmids, the pBD-P53 which expresses the P53 (AA 72-390) in fusion with Gal4 and the pAD-SV40T which expresses the SV40 large T antigen (AA 84-708,AgT), were created. HEK293 cells were seeded at 5×10^4 cells/well in 96 well plates (assay plates) in DMEM medium containing 4.5 g/L D-glucose, 10% high inactivated (HI) fetal bovine serum 1% Glutamax, 1% non-essential amino acid and 1% sodium pyruvate and 0.5% penicillin/streptomycin at 37° C. in a humidified atmosphere of 8% CO2. After 24 h, transfections were performed using Jet-PEI as transfectant (101B-010 Polyplus Transfection), according to the instructions of the manufacturer (N/P=10) and a ratio YAP/TEAD=10 (per well: 50 ng of YAP(FL), 5 ng of TEAD(FL) and 50 ng of reporter plasmid). Six hours after cell transfection, the plates (‘assay plate’) were washed with 100 μl PBS per well and cells were treated with compounds in semi-log from 0.1 μM to 30 μM or DMSO 0.5% as control in DMEM, 4.5 g/L D-Glucose without phenol red, 0.3% BSA, 1% glutamax, 1% NEAA, 1% sodium pyruvate. 24 h later, the luciferase activity was determined after addition of 100 μl of Steady Glo™ luciferase assay system (Promega E2550) according to the manufacturer's directions. Luciferase activity in cell extracts was measured by reading luminescence using the Envision device.
The cellular response was determined by fitting the concentration response curves using a 3-parameter curve fit equation and determining the concentration that inhibited the luciferase activity by 50%.

T1 sequence (P28347 whole entry): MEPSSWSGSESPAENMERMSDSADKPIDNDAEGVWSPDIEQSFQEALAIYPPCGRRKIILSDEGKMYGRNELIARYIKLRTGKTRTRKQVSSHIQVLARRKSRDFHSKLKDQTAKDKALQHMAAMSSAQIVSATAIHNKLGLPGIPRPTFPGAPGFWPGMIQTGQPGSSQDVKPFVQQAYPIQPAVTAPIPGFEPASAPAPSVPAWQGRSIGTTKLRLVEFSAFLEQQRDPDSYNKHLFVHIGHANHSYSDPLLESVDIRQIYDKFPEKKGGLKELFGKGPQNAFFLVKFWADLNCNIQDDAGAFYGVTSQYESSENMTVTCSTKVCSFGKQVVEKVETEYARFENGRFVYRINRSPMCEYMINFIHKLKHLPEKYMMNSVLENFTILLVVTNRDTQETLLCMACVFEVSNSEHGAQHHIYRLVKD

| Emax [%] | IC50 (24 h) [µM] | TEAD-GAL4 Transactivation activity Max Act (24 h) [%] | SMILES |
| --- | --- | --- | --- |
| 85 | 1.03 | – | CCCn1ccc2c(N(CC)/N=C/c3ccc4c(c3)COB4O)ncnc21 [Ex84, N-ethyl-N-[(E)-(1-hydroxy-3H-2,1-benzoxaborol-5-yl)methyleneamino]-7-propyl-pyrrolo[2,3-d]pyrimidin-4-amine] |
| 98 | 2.97 | – | COc1cc(/C=N/N(CC(C)C)C2=NS(=O)(=O)c3ccc(OCCCO)cc32)ccc1B(O)O [Ex 12, [4-[(E)-[[5-(3-hydroxypropoxy)-1,1-dioxo-1,2-benzothiazol-3-yl]-isobutyl-hydrazono]methyl]-2-methoxy-phenyl]boronic acid] |
| 79 | 0.71 | – | CN(/N=C/c1ccc2c(c1)COB2O)c1ncnc2c(C3CC3)csc12 [Ex103, 7-cyclopropyl-N-[(E)-(1-hydroxy-3H-2,1-benzoxaborol-5-yl)methyleneamino]-N-methyl-thieno[3,2-d]pyrimidin-4-amine] |
| 82 | 0.69 | – | CC1CCC(c2ccc3c(c2)COB3O)=NN1c1ncnc2occc12 (stereo not drawn) [Ex117, 4-[6-(1-hydroxy-3H-2,1-benzoxaborol-5-yl)-3-methyl-4,5-dihydro-3H-pyridazin-2-yl]furo[2,3-d]pyrimidine] |
| – | 3.52 | 86 | COc1cc(C2=NN(c3ncnc4c(OC)cccc34)C(C)CC2)ccc1B(O)O (single isomer, unassigned; isomer 2) [Ex125, [2-methoxy-4-[2-(8-methoxyquinazolin-4-yl)-3-methyl-4,5-dihydro-3H-pyridazin-6-yl]phenyl]boronic acid (isomer 2)] |
| 85 | 0.64 | – | CCN(/N=C/c1ccc2c(c1)COB2O)c1ncnc2c3c(sc12)CCCC3 [Ex91, N-ethyl-N-[(E)-(1-hydroxy-3H-2,1-benzoxaborol-5-yl)methyleneamino]-6,7,8,9-tetrahydrobenzothiopheno[3,2-d]pyrimidin-4-amine] |
| 84 | 1 | – | COc1cccc2c(N3N=C(c4ccc5c(c4)COB5O)CCC3C)ncnc12 (stereo not drawn) [Ex 56, 4-[6-(1-hydroxy-3H-2,1-benzoxaborol-5-yl)-3-methyl-4,5-dihydro-3H-pyridazin-2-yl]-8-methoxy-quinazoline] |
| 94 | 0.9 | – | CN(/N=C/c1ccc2c(c1)COB2O)c1ncnc2c1CCO2 [Ex101, N-[(E)-(1-hydroxy-3H-2,1-benzoxaborol-5-yl)methyleneamino]-N-methyl-5,6-dihydrofuro[2,3-d]pyrimidin-4-amine] |
| 86 | 3.84 | – | COc1ccc2c(c1)S(=O)(=O)N=C2N(CC(C)C)/N=C/c1ccc2c(c1)COB2O [Ex 30, N-[(E)-(1-hydroxy-3H-2,1-benzoxaborol-5-yl)methyleneamino]-N-isobutyl-6-methoxy-1,1-dioxo-1,2-benzothiazol-3-amine] |
| 63 | 0.69 | – | CCN(/N=C/c1ccc(B(O)O)c(OC)c1)c1ncnc2ccsc12 [Ex63, [4-[(E)-[ethyl(thieno[3,2-d]pyrimidin-4-yl)hydrazono]methyl]-2-methoxy-phenyl]boronic acid] |
| 80 | 2.18 | – | COc1cc(/C=N/N(CC(C)C)c2ncnc3cc(F)ccc23)ccc1B(O)O [Ex 18, [4-[(E)-[(7-fluoroquinazolin-4-yl)-isobutyl-hydrazono]methyl]-2-methoxyphenyl] boronic acid] |
| 95 | 3.43 | – | COc1cc(/C=N/N(CC(C)C)C2=NS(=O)(=O)c3ccc(C)cc32)ccc1B(O)O [Ex 7, [4-[(E)-[isobutyl-(5-methyl-1,1-dioxo-1,2-benzothiazol-3-yl)hydrazono]-methyl]-2-methoxy-phenyl]boronic acid] |
| 81 | 1.12 | – | CCN(/N=C/c1ccc2c(c1)COB2O)c1ncnc2c(OC)cccc12 [Ex 34, N-ethyl-N-[(E)-(1-hydroxy-3H-2,1-benzoxaborol-5-yl)methyleneamino]-8-methoxy-quinazolin-4-amine] |
| 97 | 3.36 | – | COc1ccc2ncnc(N(CC(C)C)/N=C/c3ccc(B(O)O)c(OC)c3)c2c1 [Ex 19, [4-[(E)-[isobutyl-(6-methoxyquinazolin-4-yl)hydrazono]methyl]-2-methoxyphenyl] boronic acid] |
| 85 | 1.86 | – | COc1cc(C2=NN(c3ncnc4ccsc34)C(C)CC2)ccc1B(O)O (stereo not drawn) [Ex72, [2-methoxy-4-(3-methyl-2-thieno[3,2-d]pyrimidin-4-yl-4,5-dihydro-3H-pyridazin-6-yl)phenyl]boronic acid] |
| 79 | 5 | – | COc1cnnc(N(C)/N=C/c2ccc3c(c2)COB3O)c1 [Ex 60, N-[(E)-(1-hydroxy-3H-2,1-benzoxaborol-5-yl)methyleneamino]-5-methoxy-N-methyl-pyridazin-3-amine] |
| 86 | 1.65 | – | CN(/N=C/c1ccc2c(c1)COB2O)c1ncnc2c1[nH]c(=O)n2C1CC(O)C1 (stereo not drawn) [Ex109, 6-[[(E)-(1-hydroxy-3H-2,1-benzoxaborol-5-yl)methyleneamino]-methyl-amino]-9-(3-hydroxycyclobutyl)-7H-purin-8-one hydrochloride] |
| 79 | 1.76 | – | CN(/N=C/c1ccc2c(c1)COB2O)c1ncnc2c(N3CCOCC3)csc12 [Ex104, N-[(E)-(1-hydroxy-3H-2,1-benzoxaborol-5-yl)methyleneamino]-N-methyl-7-morpholino-thieno[3,2-d]pyrimidin-4-amine] |
| 90 | 1.77 | – | CCN(/N=C/c1ccc(B(O)O)c(OC)c1)c1ncnc2c(OC)cccc12 [Ex 21, [4-[(E)-[ethyl-(8-methoxyquinazolin-4-yl)hydrazono]methyl]-2-methoxy-phenyl]boronic acid] |
| 75 | 8.48 | – | CN(/N=C/c1ccc2c(c1)COB2O)C1=NS(=O)(=O)C2=C1CCCC2 [Ex 51, N-[(E)-(1-hydroxy-3H-2,1-benzoxaborol-5-yl)methyleneamino]-N-methyl-1,1-dioxo-4,5,6,7-tetrahydro-1,2-benzothiazol-3-amine] |
| 76 | 6.16 | – | CCN(/N=C/c1ccc(B(O)O)c(OC)c1)C1=NS(=O)(=O)c2ccccc21 [Ex 4, [4-[(E)-[(1,1-dioxo-1,2-benzothiazol-3-yl)-ethyl-hydrazono]methyl]-2-methoxy-phenyl] boronic acid] |
| 90 | – | – | CCOc1cc(/C=N/N(CC(C)C)C2=NS(=O)(=O)c3ccccc32)ccc1B(O)O [Ex 14, [4-[(E)-[(1,1-dioxo-1,2-benzothiazol-3-yl)-isobutyl-hydrazono]methyl]-2-ethoxyphenyl]boronic acid] |
| 96 | 0.2 | – | CSc1nc2ncnc(N3N=C(c4ccc5c(c4)COB5O)CCC3C)c2s1 (stereo not drawn) [Ex123, 7-[6-(1-hydroxy-3H-2,1-benzoxaborol-5-yl)-3-methyl-4,5-dihydro-3H-pyridazin-2-yl]-2-methylsulfanyl-thiazolo[4,5-d]pyrimidine] |
| 89 | 2.61 | – | COc1cc(OC)c2c(c1)C(N(CC(C)C)/N=C/c1ccc(B(O)O)c(OC)c1)=NS2(=O)=O [Ex 3, [4-[(E)-[(5,7-dimethoxy-1,1-dioxo-1,2-benzothiazol-3-yl)-isobutyl-hydrazono]methyl]-2-methoxy-phenyl]boronic acid] |
| 86 | 1.59 | – | COc1cccc2c(N(CC(C)C)/N=C/c3ccc4c(c3)COB4O)ncnc12 [Ex 32, N-[(E)-(1-hydroxy-3H-2,1-benzoxaborol-5-yl)methyleneamino]-N-isobutyl-8-methoxy-quinazolin-4-amine] |
| 88 | 4.68 | – | CC(C)CN(/N=C/c1ccc2c(c1)C(C)OB2O)C1=NS(=O)(=O)c2ccccc21 (stereo not drawn) [Ex 49, N-[(E)-(1-hydroxy-3-methyl-3H-2,1-benzoxaborol-5-yl)methyleneamino]-N-isobutyl-1,1-dioxo-1,2-benzothiazol-3-amine] |
